Measured values reported in the supplement of paper PMC8967900.

Assays:
Test in all cases: selective drug sensitivity score (sDSS, relative to normal bone marrow) (sDSS (score)); higher = more potent and effective on the cell line relative to normal bone marrow cells
Settings in all cases: 72 h
[1] = system: 697
[2] = system: COG-LL-355h
[3] = system: PF-382
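Note: ALL cell lines in 384-well plates, five doses spanning 10,000-fold, each plate scaled between vehicle and 100 µmol/L benzalkonium chloride controls, sDSS an adapted area-under-curve metric.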

Row | Compound | selective drug sensitivity score [1] | selective drug sensitivity score [2] | selective drug sensitivity score [3]
1 | Cc1cn(-c2cc(NC(=O)c3ccc(C)c(Nc4nccc(-c5cnccn5)n4)c3)cc(C(F)(F)F)c2)cn1 [Radotinib] (top concentration 10000 nM) | 5.7 | 0 | 0.2
2 | CC(C)c1c(C(=O)Nc2ccccc2)c(-c2ccccc2)c(-c2ccc(F)cc2)n1CC[C@@H](O)C[C@@H](O)CC(=O)O [Atorvastatin] (top concentration 10000 nM) | -2.4 | 4.2 | -1
3 | COC[C@H](NC(=O)c1cnc(C)s1)C(=O)N[C@@H](COC)C(=O)N[C@@H](Cc1ccccc1)C(=O)[C@@]1(C)CO1 [Oprozomib] (top concentration 2500 nM) | 0.2 | 8.4 | 11.3
4 | Nc1cccc2c1CN(C1CCC(=O)NC1=O)C2=O (centres undefined) [Lenalidomide] (top concentration 100000 nM) | -2.28 | 2.82 | -2.28
5 | CC(C)(C)c1cnc(CSc2cnc(NC(=O)C3CCNCC3)s2)o1 [SNS-032] (top concentration 10000 nM) | -2.64 | 0.16 | -5.34
6 | Cc1noc2c1-c1ccccc1C(c1ccc(Cl)cc1)=N[C@H]2CC(N)=O [CPI-0610] (top concentration 10000 nM) | 7.1 | 10.3 | 3.5
7 | N#Cc1ccc(COC[C@H]2O[C@@H](n3c(NCc4ccc(Cl)c(Cl)c4)nc4c(N)ncnc43)[C@H](O)[C@@H]2O)cc1 (top concentration 10000 nM) | 4.72 | 2.22 | 8.82
8 | NCC(=O)Nc1ccc(-n2nc(C(F)(F)F)cc2-c2ccc3c(ccc4ccccc43)c2)cc1 (top concentration 25000 nM) | 10.8 | -0.2 | 8
9 | Cc1ccc(C(=O)Nc2cccc(C(F)(F)F)c2)cc1Nc1nc(-c2cccnc2)nc2c1cnn2C [NVP-BHG712] (top concentration 10000 nM) | 3.78 | 4.48 | 3.38
10 | COc1cccc(OCCCN)c1-c1cc(Nc2cnc(C#N)cn2)n[nH]1 [Prexasertib] (top concentration 10000 nM) | 18.4 | 4.24 | 16.9
11 | CC(C)c1cc(C(=O)N2Cc3ccc(CN4CCN(C)CC4)cc3C2)c(O)cc1O [Onalespib] (top concentration 2500 nM) | 2.82 | 3.32 | 5.62
12 | Nc1ncn([C@@H]2O[C@H](CO)[C@@H](O)[C@H]2O)c(=O)n1 [Azacitidine] (top concentration 10000 nM) | 10.9 | 5.14 | 4.44
13 | Cn1cnc2c(F)c(Nc3ccc(Br)cc3F)c(C(=O)NOCCO)cc21 [Binimetinib] (top concentration 1000 nM) | -1.62 | 5.58 | -1.82
14 | O=C(Nc1cc(Oc2cc(F)c(NC(=O)C3(C(=O)Nc4ccc(F)cc4)CC3)cc2F)ccn1)C1CC1 [Altiratinib] (top concentration 10000 nM) | 4.24 | -0.36 | 0.64
15 | Cc1ccc(C(=O)N(CCCN)[C@@H](c2oc3cc(Cl)ccc3c(=O)c2Cc2ccccc2)C(C)C)cc1 (top concentration 100 nM) | 1.36 | -2.64 | 0.86
16 | CCc1nc(C(N)=O)c(Nc2ccc(N3CCC(N4CCN(C)CC4)CC3)c(OC)c2)nc1NC1CCOCC1 [Gilteritinib] (top concentration 1000 nM) | 1.88 | 2.38 | -2.52
17 | CC[C@H](Nc1ncnc2[nH]cnc12)c1nc2cccc(F)c2c(=O)n1-c1ccccc1 [Idelalisib] (top concentration 10000 nM) | 1.84 | 3.14 | -0.36
18 | Cc1cc2c(C(C)C)c(O)c(O)c(C=O)c2c(O)c1-c1c(C)cc2c(C(C)C)c(O)c(O)c(C=O)c2c1O [AT-101] (top concentration 100000 nM) | 3.08 | 4.98 | 1.98
19 | Sc1ncnc2nc[nH]c12 [Mercaptopurine] (top concentration 10000 nM) | 8 | 0.5 | 9.2
20 | COc1ccc(Cn2ccc3ccc(C(=O)NO)cc32)cc1 (top concentration 10000 nM) | 4.34 | 0.74 | 1.84
21 | CNC(=O)c1nn(C)c2c1C(C)(C)Cc1cnc(Nc3ccc(N4CCN(C)CC4)cc3)nc1-2 [Milciclib] (top concentration 10000 nM) | 12.5 | 5.44 | 4.84
22 | Cc1ccc(C(=O)Nc2ccc(Oc3cc4cnn(C)c4cc3-c3cn[nH]c3)c(F)c2)c(=O)n1-c1ccc(F)cc1 [Merestinib] (top concentration 1000 nM) | 0.48 | -0.62 | -0.62

Row | Compound | selective drug sensitivity score [1] | selective drug sensitivity score [2] | selective drug sensitivity score [3]
23 | O=C(Nc1ccncc1)C(=O)c1cn(Cc2ccc(Cl)cc2)c2ccccc12 [Indibulin] (top concentration 10000 nM) | 12 | -1.46 | 4.74
24 | CC(=O)Nc1cccc(-n2c(=O)n(C3CC3)c(=O)c3c(Nc4ccc(I)cc4F)n(C)c(=O)c(C)c32)c1 [Trametinib] (top concentration 250 nM) | -2.64 | 5.06 | -5.44
25 | Cn1cncc1[C@@](N)(c1ccc(Cl)cc1)c1ccc2c(c1)c(-c1cccc(Cl)c1)cc(=O)n2C [Tipifarnib] (top concentration 10000 nM) | 6.9 | 4.5 | 13
26 | CNc1nc(-c2ccc3c(N)n[nH]c3c2)cc(N2C[C@@H](C(=O)NC3CCCCC3)CC[C@H]2C)n1 (top concentration 10000 nM) | 9.06 | 6.66 | 2.76
27 | CS(=O)(=O)c1ccc(C(=O)Nc2ccc(Cl)c(-c3ccccn3)c2)c(Cl)c1 [Vismodegib] (top concentration 10000 nM) | -0.84 | 2.26 | -1.14
28 | Cn1nccc1Nc1nccc(-c2ccn([C@H](CO)c3ccc(Cl)c(F)c3)c(=O)c2)n1 [Ravoxertinib] (top concentration 10000 nM) | 1.5 | 7.7 | 1.2
29 | COc1cc2c(Oc3ccc(NC(=O)C4(C(=O)Nc5ccc(F)cc5)CC4)cc3F)ccnc2cc1OCCCN1CCOCC1 [Foretinib] (top concentration 1000 nM) | 2.24 | 0.34 | 0.34
30 | CC1(COc2ccc3c(c2)ncn3-c2ccc3cccc(N4CCC(N)CC4)c3n2)COC1 [Crenolanib] (top concentration 10000 nM) | 3.28 | 0.48 | 0.08
31 | CCCCc1nc2cc(/C=C/C(=O)NO)ccc2n1CCN(CC)CC [Pracinostat] (top concentration 10000 nM) | 7.68 | 3.58 | 3.38
32 | CC1(C)OCCn2c1nc1c(N3CCOCC3)nc(-c3cnc(N)nc3)nc12 [GDC-0084] (top concentration 10000 nM) | 8.2 | 9 | 5.6
33 | CC1(C)CC[C@]2(NC(=O)C(C)(F)F)CC[C@]3(C)[C@H](C(=O)C=C4[C@@]5(C)C=C(C#N)C(=O)C(C)(C)[C@@H]5CC[C@]43C)[C@@H]2C1 [Omaveloxolone] (top concentration 10000 nM) | 4.78 | 4.88 | 1.08
34 | COc1ccccc1S(=O)(=O)Nc1ccc2c(c1)CN(C)C(=O)N2 [PFI-1] (top concentration 30000 nM) | 3.7 | 8.7 | 1.8
35 | COCCNCc1ccc(-c2cc3nccc(Oc4ccc(NC(=S)NC(=O)Cc5ccc(F)cc5)cc4F)c3s2)nc1 [Glesatinib] (top concentration 2500 nM) | 0.04 | 0.54 | -0.56
36 | Cc1cc(-c2nc(-c3ccc(OC(F)(F)F)cc3)no2)nn1Cc1ccnc(N2CCN(C3CC3)CC2)c1 [BAY_87-2243] (top concentration 1000 nM) | 18.7 | 10.8 | 16.9
37 | CN1CCc2c(c3ccccc3n2Cc2ccc(C(=O)NO)cc2)C1 [Tubastatin_A] (top concentration 10000 nM) | 4.46 | 3.16 | 0.76
38 | COc1cccc2c1C(=O)c1c(O)c3c(c(O)c1C2=O)C[C@@](O)(C(=O)CO)C[C@@H]3O[C@H]1C[C@H](N)[C@H](O)[C@H](C)O1 [Doxorubicin] (top concentration 1000 nM) | 9.88 | 3.98 | 3.08
39 | C=C(c1ccc(C(=O)O)cc1)c1cc2c(cc1C)C(C)(C)CCC2(C)C [Bexarotene] (top concentration 10000 nM) | -2.7 | -5.1 | -4.6
40 | CCN1C(=O)CNc2ncc(-c3ccc(-c4nc[nH]n4)nc3C)nc21 [CC-115] (top concentration 10000 nM) | 4.14 | 1.44 | 2.14
41 | Cn1ncc(Cl)c1-c1cc(C(=O)N[C@H](CN)Cc2cccc(F)c2)sc1Cl [Afuresertib] (top concentration 1000 nM) | 0.76 | 2.76 | 2.66
42 | COc1ccc(S(=O)(=O)Nc2cccnc2Nc2ccc(O)cc2)cc1 [ABT-751] (top concentration 10000 nM) | 12.8 | 1.02 | 9.42
43 | Nc1ncnc2c1nc(Cl)n2[C@@H]1O[C@H](CO)[C@@H](O)[C@H]1O [8-chloro-adenosine] (top concentration 50000 nM) | 4.1 | -3.6 | -1.9
